Measured values reported in ChEMBL document CHEMBL5230092, “PFKFB3 inhibitors as potential anticancer agents: Mechanisms of action, current developments, and structure-activity relationships” (Eur J Med Chem, 2020).

What was measured:
[1] = target: T1, 6-phosphofructo-2-kinase/fructose-2,6-bisphosphatase 3 (Homo sapiens, UniProt Q16875); assay: Inhibition of PFKFB3 (unknown origin) incubated for 90 mins by ADP-Glo luminescent assay
HeLa [2] = assay: Antiproliferative activity against human HeLa cells assessed as cell growth inhibition measured after 72 hrs by MTT assay; format: functional
A549 = assay: Antiproliferative activity against human A549 cells assessed as cell growth inhibition measured after 72 hrs by MTT assay; format: functional
MDA-MB-231 = assay: Antiproliferative activity against human MDA-MB-231 cells assessed as cell growth inhibition measured after 72 hrs by MTT assay; format: functional
HT-29 = assay: Antiproliferative activity against human HT-29 cells assessed as cell growth inhibition measured after 72 hrs by MTT assay; format: functional
[3] = target: T1, 6-phosphofructo-2-kinase/fructose-2,6-bisphosphatase 3; assay: Inhibition of PFKFB3 (unknown origin) at 100 uM relative to control
[4] = target: T1, 6-phosphofructo-2-kinase/fructose-2,6-bisphosphatase 3; assay: Inhibition of full-length human PFKFB3 (1 to 520 residues) incubated for 2 hrs in presence of ATP by ADP-Glo assay
[5] = target: T1, 6-phosphofructo-2-kinase/fructose-2,6-bisphosphatase 3; format: cell-based, PANC-1
[6] = target: T1, 6-phosphofructo-2-kinase/fructose-2,6-bisphosphatase 3; assay: Binding affinity to PFKFB3 (unknown origin) by MST assay
[7] = target: T1, 6-phosphofructo-2-kinase/fructose-2,6-bisphosphatase 3; assay: Inhibition of PFKFB3 (unknown origin) by ADP-Glo luminescent assay
[8] = Half life in Sprague-Dawley rat at 10 mg/kg, iv by LC-MS/MS analysis; format: ADME, organism-based; conditions: in vivo
[9] = Oral bioavailability in Sprague-Dawley rat by LC-MS/MS analysis; format: ADME, organism-based; conditions: in vivo
[10] = Volume of distribution in Sprague-Dawley rat at 10 mg/kg, iv by LC-MS/MS analysis; format: ADME, organism-based; conditions: in vivo
[11] = AUC in Sprague-Dawley rat at 10 mg/kg, iv by LC-MS/MS analysis; format: ADME, organism-based; set-up: dose 10 mg/kg, route iv; conditions: in vivo
[12] = target: T1, 6-phosphofructo-2-kinase/fructose-2,6-bisphosphatase 3; assay: Inhibition of PFKFB3 (unknown origin) at 250 nM relative to control
[13] = Cmax in Sprague-Dawley rat at 10 mg/kg, iv by LC-MS/MS analysis; format: ADME, organism-based; set-up: dose 10 mg/kg, route iv; conditions: in vivo
[14] = target: 6-phosphofructo-2-kinase/fructose-2,6-bisphosphatase 1 (Homo sapiens) (UniProt P16118); assay: Inhibition of PFKFB1 (unknown origin) at 5.94 uM relative to control
[15] = target: 6-phosphofructo-2-kinase/fructose-2,6-bisphosphatase 2 (Homo sapiens) (UniProt O60825); assay: Inhibition of PFKFB2 (unknown origin) at 5.94 uM relative to control
[16] = target: 6-phosphofructo-2-kinase/fructose-2,6-bisphosphatase 4 (Homo sapiens) (UniProt Q16877); assay: Inhibition of PFKFB4 (unknown origin) at 5.94 uM relative to control
[17] = target: T1, 6-phosphofructo-2-kinase/fructose-2,6-bisphosphatase 3; assay: Inhibition of PFKFB3 (unknown origin) by UV-vis spectrophotometry
[18] = target: T1, 6-phosphofructo-2-kinase/fructose-2,6-bisphosphatase 3; assay: Inhibition of PFKFB3 (unknown origin)
[19] = AUC in BALBc mouse at 10 mg/kg, iv by LC-MS/MS analysis; format: ADME, organism-based; set-up: dose 10 mg/kg, route iv; conditions: BALB/c, in vivo
[20] = Oral bioavailability in BALBc mouse by LC-MS/MS analysis; format: ADME, organism-based; conditions: BALB/c, in vivo
[21] = Half life in BALBc mouse at 10 mg/kg, iv by LC-MS/MS analysis; format: ADME, organism-based; conditions: BALB/c, in vivo
[22] = Half life in iv dosed C57BL/6 mouse by LC-MS/MS analysis; format: ADME, organism-based; conditions: in vivo
[23] = Toxicity in Sprague-Dawley rat assessed as maximum tolerated dose; conditions: in vivo
[24] = AUC in BALB/c mouse at 5 mg/kg, iv by LC-MS/MS analysis; format: ADME, organism-based; set-up: dose 5 mg/kg, route iv; conditions: in vivo
[25] = Half life in BALB/c mouse at 5 mg/kg, iv by LC-MS/MS analysis; format: ADME, organism-based; conditions: in vivo
[26] = Metabolic stability in human liver microsomes; format: ADME, Microsome
[27] = Clearance in BALB/c mouse at 5 mg/kg, iv by LC-MS/MS analysis; format: ADME, organism-based; conditions: in vivo
HeLa [28] = assay: Antiproliferative activity against human HeLa cells assessed as cell growth inhibition; format: functional
[29] = Metabolic stability in human liver microsomes assessed as clearance; format: ADME, Microsome; conditions: read-out: CLH
[30] = Metabolic stability in mouse liver microsomes assessed as clearance; format: ADME, Microsome; conditions: read-out: CLH
[31] = Cytotoxicity against human Epithelial cell assessed as cell growth inhibition; format: toxicity, cell-based; conditions: epithelial cells
[32] = Oral bioavailability in Beagle dog by LC-MS/MS analysis; format: ADME, organism-based, Canis lupus familiaris; conditions: in vivo
[33] = Half life in Beagle dog at 6 mg/kg, iv by LC-MS/MS analysis; format: ADME, organism-based, Canis lupus familiaris; conditions: in vivo
[34] = AUC in Beagle dog at 6 mg/kg, iv by LC-MS/MS analysis; format: ADME, organism-based, Canis lupus familiaris; set-up: dose 6 mg/kg, route iv; conditions: in vivo
[35] = target: T1, 6-phosphofructo-2-kinase/fructose-2,6-bisphosphatase 3; format: cell-based, MIA PaCa-2
[36] = target: T1, 6-phosphofructo-2-kinase/fructose-2,6-bisphosphatase 3; format: cell-based, NUGC-3

T1 sequence (Q16875 whole entry): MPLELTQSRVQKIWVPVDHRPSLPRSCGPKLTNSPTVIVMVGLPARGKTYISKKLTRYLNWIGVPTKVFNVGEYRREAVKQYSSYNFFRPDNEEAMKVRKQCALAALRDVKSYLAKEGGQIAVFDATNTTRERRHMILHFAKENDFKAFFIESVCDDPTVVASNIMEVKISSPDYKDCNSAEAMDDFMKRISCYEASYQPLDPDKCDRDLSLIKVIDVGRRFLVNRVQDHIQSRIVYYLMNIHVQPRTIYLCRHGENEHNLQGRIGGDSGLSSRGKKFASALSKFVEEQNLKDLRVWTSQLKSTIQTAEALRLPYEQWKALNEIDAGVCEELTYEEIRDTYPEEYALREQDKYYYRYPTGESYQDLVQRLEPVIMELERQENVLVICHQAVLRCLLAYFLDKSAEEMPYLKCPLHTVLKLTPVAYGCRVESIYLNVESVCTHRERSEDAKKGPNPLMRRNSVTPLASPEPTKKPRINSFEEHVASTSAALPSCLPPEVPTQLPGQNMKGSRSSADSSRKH
Chain of 6-phosphofructo-2-kinase/fructose-2,6-bisphosphatase 2 (Homo sapiens) (O60825 2-505 limits assumed): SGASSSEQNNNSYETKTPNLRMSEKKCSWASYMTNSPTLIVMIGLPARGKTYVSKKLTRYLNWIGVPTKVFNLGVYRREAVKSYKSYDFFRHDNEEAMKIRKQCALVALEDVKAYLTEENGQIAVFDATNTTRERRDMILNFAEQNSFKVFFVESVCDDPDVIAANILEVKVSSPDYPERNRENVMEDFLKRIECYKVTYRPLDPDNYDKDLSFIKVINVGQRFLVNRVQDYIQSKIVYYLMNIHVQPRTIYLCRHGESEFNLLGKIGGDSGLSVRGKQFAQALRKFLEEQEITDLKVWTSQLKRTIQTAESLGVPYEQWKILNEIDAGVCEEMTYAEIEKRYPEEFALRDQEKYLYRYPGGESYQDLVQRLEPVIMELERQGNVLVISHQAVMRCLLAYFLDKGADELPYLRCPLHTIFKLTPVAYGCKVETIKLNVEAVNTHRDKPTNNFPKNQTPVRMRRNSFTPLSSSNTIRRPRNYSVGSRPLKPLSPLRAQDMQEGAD
Chain of 6-phosphofructo-2-kinase/fructose-2,6-bisphosphatase 1 (Homo sapiens) (P16118 2-471 limits assumed): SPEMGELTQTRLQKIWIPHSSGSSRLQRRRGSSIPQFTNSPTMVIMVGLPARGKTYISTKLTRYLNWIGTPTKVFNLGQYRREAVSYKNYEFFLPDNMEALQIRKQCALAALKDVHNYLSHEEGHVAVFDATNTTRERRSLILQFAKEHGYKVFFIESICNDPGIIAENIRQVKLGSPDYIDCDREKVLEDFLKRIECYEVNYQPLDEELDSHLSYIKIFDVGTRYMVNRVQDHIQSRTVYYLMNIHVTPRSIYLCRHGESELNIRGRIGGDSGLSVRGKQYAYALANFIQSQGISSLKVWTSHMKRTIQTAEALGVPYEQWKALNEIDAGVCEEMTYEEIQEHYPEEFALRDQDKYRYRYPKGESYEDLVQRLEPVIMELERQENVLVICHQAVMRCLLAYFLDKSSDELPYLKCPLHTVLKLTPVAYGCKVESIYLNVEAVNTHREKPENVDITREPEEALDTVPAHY
Chain of 6-phosphofructo-2-kinase/fructose-2,6-bisphosphatase 4 (Homo sapiens) (Q16877 whole entry, looked up): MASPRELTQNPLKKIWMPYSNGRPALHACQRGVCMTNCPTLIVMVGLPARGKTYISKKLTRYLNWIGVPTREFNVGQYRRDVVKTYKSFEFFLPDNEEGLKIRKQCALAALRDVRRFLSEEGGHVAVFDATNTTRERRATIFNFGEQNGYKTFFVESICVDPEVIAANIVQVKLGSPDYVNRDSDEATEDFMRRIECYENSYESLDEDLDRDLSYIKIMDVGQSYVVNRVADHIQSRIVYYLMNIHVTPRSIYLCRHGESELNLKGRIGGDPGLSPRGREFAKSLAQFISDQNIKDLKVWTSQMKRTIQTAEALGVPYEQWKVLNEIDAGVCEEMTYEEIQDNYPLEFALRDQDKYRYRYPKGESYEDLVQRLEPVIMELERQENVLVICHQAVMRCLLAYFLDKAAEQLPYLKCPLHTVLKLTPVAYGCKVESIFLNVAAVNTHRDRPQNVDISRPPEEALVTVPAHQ

`COc1ccc(C(Nc2cc(-c3ccc4ccn(C)c4c3)c3nccnc3c2)c2cnnn2C)cn1` (stereo not given) showed an IC50 [1] of 0.0035 µM.

`Cc1ccc(/C=N/NC(=O)c2nnn(-c3nonc3N)c2-c2ccc([N+](=O)[O-])cc2)cc1` showed a GI50 (HeLa [2]) of 15.1 µM, a GI50 (A549) of 18 µM and a GI50 (MDA-MB-231) of 18 µM. It also gave a GI50 (HT-29) of 18 µM and an inhibition [3] of 17%.

For `O=C1NC=NC2C1C=C(c1ccc(Br)cc1)N2c1ccccc1` (stereo not given), the IC50 [4] was 0.398 µM.

For `Cc1c(S(=O)(=O)Nc2cccc(C(=O)O)c2)sc2ccc(C(C)C)cc12`, the IC50 [5] was 2.3 µM.

In the case of `N[C@H](Cc1c[nH]c2ccccc12)C(=O)NCC(=O)N[C@H](Cc1ccc(O)cc1)C(=O)O`, the K [6] is reported as 3 µM.

`COc1ccc(C2=CN(c3cccc(OC)c3)C3N=CNC(=O)C23)cc1` (stereo not given) gave an IC50 [4] of 0.251 µM.

`O=C(O)c1ccc(NS(=O)(=O)c2cc(Cl)sc2Cl)cc1O` gave an IC50 [7] of 0.29 µM.

Work on `O=C1NC=NC2C1C(c1ccccc1)=CN2c1ccc(Br)cc1` (stereo not given) yielded an IC50 [4] of 0.398 µM.

Work on `Cl.O=C(c1ccncc1)c1cc2c(ccc3ccccc32)[nH]1` yielded a half-life [8] of 5.5 h, a bioavailability [9] of 38% and a Vd [10] of 2.5 L/kg. The AUC [11] was 1290 ng·h/mL, the inhibition [12] was 26.2% and the Cmax [13] was 16900 ng/mL.

With `CC(C)C[C@H](NC(=O)[C@H](CC(C)C)NC(=O)[C@H](Cc1ccccc1)NC(=O)[C@@H](N)CO)C(=O)N[C@@H](CCCN=C(N)N)C(N)=O` the K [6] was 18 µM.

`O=C(O)c1ccc(NS(=O)(=O)c2cccc(-c3ccc4ncccc4c3)c2)cc1O` gave an IC50 [7] of 0.28 µM.

In the case of `O=c1cc(-c2ccc(O)cc2)oc2c(O)c(O)c(O)c(O)c12`, the inhibition [14] is reported as under 50%, the inhibition [15] is reported as under 50% and the inhibition [16] is reported as under 50%.

`COc1cccc([C@H](C)Nc2cc(-c3ccc4ncsc4c3)nc(C)n2)c1` showed an IC50 [17] of under 0.5 µM.

In the case of `O=C(CBr)NCCOP(=O)(O)O`, the IC50 [18] is reported as 2000 µM.

For `CC(C)OC(=O)c1cccc(-c2cc(S(=O)(=O)Nc3ccc(C(=O)O)c(O)c3)sc2Cl)c1`, the IC50 [7] was 0.15 µM.

Molecule `CC(C)C[C@H](NC(=O)[C@H](Cc1ccccc1)NC(=O)CNC(=O)[C@H](CO)NC(=O)[C@@H](N)Cc1ccc(O)cc1)C(=O)N[C@H](C(=O)O)[C@@H](C)O` has a K [6] of 44 µM.

Molecule `O=C(c1ccccc1)c1cc2c(ccc3ccccc32)[nH]1` has an AUC [19] of 2630 ng·h/mL, a bioavailability [20] of 25% and a half-life [21] of 2.1 h. The inhibition [12] was 13.5%.

`O=C1NC=NC2C1C(c1ccc(Cl)cc1)=CN2c1ccccc1` (stereo not given) showed an IC50 [4] of 0.631 µM.

In the case of `O=C(/C=C/c1ccc2ccccc2n1)c1ccncc1`, the half-life [22] is reported as 5.1 h.

Molecule `O=C(/C=C/c1ccc2ccc(C(F)(F)F)cc2n1)c1ccncc1` [PFK-158] has an MTD [23] of over 40 mg/kg, an AUC [24] of 3240 ng·h/mL and a half-life [25] of 10.5 h. For the same molecule, the Stability [26] was 37% and the clearance [27] was 26 mL/min/kg.

Work on `CCOC(=O)c1cc2ccc(O)cc2oc1=O` yielded a GI50 (HeLa [28]) of 2.7 µM.

`Cn1cc([C@H](Nc2cc(-c3ccc4ccn(C)c4c3)c3nccnc3c2)c2cnnn2C)cn1` gave a microsomal CLint [29] of 50 µL/min/mg and a microsomal CLint [30] of 29 µL/min/mg.

With `O=C(/C=C/c1cccnc1)c1ccncc1` the IC50 [31] was 1.4 µM.

In the case of `Nc1ccc(C(=O)c2cc3c(ccc4ccccc43)[nH]2)cc1`, the bioavailability [32] is reported as 95%, the half-life [33] is reported as 5.8 h and the AUC [34] is reported as 5070 ng·h/mL. It also gave an inhibition [12] of 81.5%.

Molecule `O=C(O)c1ccc(NS(=O)(=O)c2cc(-c3ccc4c(c3)OCO4)c(Cl)s2)cc1O` has an IC50 [7] of 0.2 µM.

Molecule `O=C(OCCO)c1ccc(NS(=O)(=O)c2cccc(-c3cc(F)ccc3O)c2)cc1O` has an IC50 [5] of 0.09 µM, an IC50 [35] of 0.09 µM and an IC50 [36] of 0.09 µM.
